In US8952024B2, “Herbicidal pyrimidone derivatives” (E I du Pont de Nemours and Company, priority 2009, dated 2015):

Tests used:
Assay type in all cases: in vivo
[1] = tested on: pigweed (Amaranthus retroflexus); assay: Test C plant response; conditions: Preemergence, scale 0 to 100
[2] = tested on: wild mustard (Sinapis arvensis); assay: Test C plant response; conditions: Preemergence, scale 0 to 100
[3] = tested on: buckwheat (wild buckwheat, Polygonum convolvulus); assay: Test C plant response; conditions: Preemergence, scale 0 to 100
[4] = tested on: field violet (Viola arvensis); assay: Test C plant response; conditions: Preemergence, scale 0 to 100
[5] = tested on: galium (catchweed bedstraw, Galium aparine); assay: Test C plant response; conditions: Preemergence, scale 0 to 100
[6] = tested on: winter wheat (Triticum aestivum); assay: Test C plant response; conditions: Preemergence, scale 0 to 100
[7] = tested on: spring barley (Hordeum vulgare); assay: Test C plant response; conditions: Preemergence, scale 0 to 100
[8] = tested on: blackgrass (Alopecurus myosuroides); assay: Test C plant response; conditions: Preemergence, scale 0 to 100
[9] = tested on: Russian thistle (Salsola iberica); assay: Test F combination of compound 2 with bromoxynil, postemergence; conditions: 15 days, mean of three replicates, scale 0 to 100
Method: Test F evaluated the effect of combining compound 2 with bromoxynil. The test species for this experiment was Russian thistle (Salsola iberica), which was prepared by sowing seeds into a blend of loam soil and sand. Test chemicals were formulated in a non-phytotoxic solvent mixture that included a surfactant and applied postemergence to plants ranging in height from 12 to 20 cm. […] Treatments consisted of Compound 2, bromoxynil, or their combination, using a spray volume of 457 L/ha. Each treatment was replicated three times. Treated plants and untreated controls were maintained in a greenhouse for 15 days, after which time all plants were visually evaluated and compared to the untreated controls. […] Colby's Equation was used to determine the herbicidal effects expected from the mixtures. Colby's Equation (Colby, S.

[10] = tested on: oilseed rape (Brassica napus); assay: Test C plant response; conditions: Preemergence, scale 0 to 100
[11] = tested on: bromegrass (downy bromegrass, Bromus tectorum); assay: Test C plant response; conditions: Preemergence, scale 0 to 100
[12] = tested on: wild radish (Raphanus raphanistrum); assay: Test C plant response; conditions: Preemergence, scale 0 to 100
[13] = tested on: canarygrass (Phalaris minor); assay: Test C plant response; conditions: Preemergence, scale 0 to 100
[14] = tested on: deadnettle (henbit deadnettle, Lamium amplexicaule); assay: Test C plant response; conditions: Preemergence, scale 0 to 100
kochia (Kochia scoparia) = assay: Test C plant response; conditions: Preemergence, scale 0 to 100
[15] = tested on: chickweed (common chickweed, Stellaria media); assay: Test C plant response; conditions: Preemergence, scale 0 to 100
[16] = tested on: spring wheat (Triticum aestivum); assay: Test C plant response; conditions: Preemergence, scale 0 to 100
[17] = tested on: green foxtail (Setaria viridis); assay: Test C plant response; conditions: Preemergence, scale 0 to 100
wild oat (Avena fatua) = assay: Test C plant response; conditions: Preemergence, scale 0 to 100

O=C1CCCC(O)=C1C(=O)c1cnc(-c2ccccc2)n(-c2ccccc2)c1=O [Compound 2, 5-[(2-hydroxy-6-oxo-1-cyclohexen-1-yl)carbonyl]-2,3-diphenyl-4(3H)-pyrimidinone]
Plant response rating: Pigweed ([1]; 62 g ai/ha): 65
Plant response rating: Pigweed ([1]; 125 g ai/ha): 85
Plant response rating: Pigweed ([1]; 16 g ai/ha): 0
Plant response rating: Pigweed ([1]; 31 g ai/ha): 20
Plant response rating: Mustard, Wild ([2]; 62 g ai/ha): 5
Plant response rating: Mustard, Wild ([2]; 125 g ai/ha): 35
Plant response rating: Mustard, Wild ([2]; 16 g ai/ha): 0
Plant response rating: Mustard, Wild ([2]; 31 g ai/ha): 0
Plant response rating: Buckwheat, Wild ([3]; 62 g ai/ha): 0
Plant response rating: Buckwheat, Wild ([3]; 125 g ai/ha): 0
Plant response rating: Buckwheat, Wild ([3]; 16 g ai/ha): 0
Plant response rating: Buckwheat, Wild ([3]; 31 g ai/ha): 0
Plant response rating: Field Violet ([4]; 62 g ai/ha): 0
Plant response rating: Field Violet ([4]; 125 g ai/ha): 0
Plant response rating: Field Violet ([4]; 16 g ai/ha): 0
Plant response rating: Field Violet ([4]; 31 g ai/ha): 0
Plant response rating: Galium ([5]; 62 g ai/ha): 0
Plant response rating: Galium ([5]; 125 g ai/ha): 50
Plant response rating: Wheat, Winter ([6]; 62 g ai/ha): 0
Plant response rating: Wheat, Winter ([6]; 125 g ai/ha): 0
Plant response rating: Wheat, Winter ([6]; 16 g ai/ha): 0
Plant response rating: Wheat, Winter ([6]; 31 g ai/ha): 0
Plant response rating: Barley, Spring ([7]; 62 g ai/ha): 0
Plant response rating: Barley, Spring ([7]; 125 g ai/ha): 0
Plant response rating: Barley, Spring ([7]; 16 g ai/ha): 0
Plant response rating: Barley, Spring ([7]; 31 g ai/ha): 0
Plant response rating: Blackgrass ([8]; 62 g ai/ha): 0
Plant response rating: Blackgrass ([8]; 125 g ai/ha): 0
Plant response rating: Blackgrass ([8]; 16 g ai/ha): 0
Plant response rating: Blackgrass ([8]; 31 g ai/ha): 0
Russian Thistle Obsd. (observed effect) ([9]; Cmpd 2 62 g a.i./ha alone): 42
Russian Thistle Obsd. (observed effect) ([9]; Cmpd 2 125 g a.i./ha alone): 52
Plant response rating: Oilseed Rape ([10]; 62 g ai/ha): 35
Plant response rating: Oilseed Rape ([10]; 125 g ai/ha): 65
Plant response rating: Oilseed Rape ([10]; 16 g ai/ha): 0
Plant response rating: Oilseed Rape ([10]; 31 g ai/ha): 20
Plant response rating: Bromegrass, Downy ([11]; 62 g ai/ha): 0
Plant response rating: Bromegrass, Downy ([11]; 125 g ai/ha): 0
Plant response rating: Bromegrass, Downy ([11]; 16 g ai/ha): 0
Plant response rating: Bromegrass, Downy ([11]; 31 g ai/ha): 0
Plant response rating: Radish, Wild ([12]; 62 g ai/ha): 0
Plant response rating: Radish, Wild ([12]; 125 g ai/ha): 0
Plant response rating: Radish, Wild ([12]; 16 g ai/ha): 0
Plant response rating: Radish, Wild ([12]; 31 g ai/ha): 0
Plant response rating: Canarygrass ([13]; 62 g ai/ha): 0
Plant response rating: Canarygrass ([13]; 125 g ai/ha): 10
Plant response rating: Canarygrass ([13]; 16 g ai/ha): 0
Plant response rating: Canarygrass ([13]; 31 g ai/ha): 0
Plant response rating: Deadnettle ([14]; 62 g ai/ha): 95
Plant response rating: Deadnettle ([14]; 125 g ai/ha): 98
Plant response rating: Deadnettle ([14]; 16 g ai/ha): 0
Plant response rating: Deadnettle ([14]; 31 g ai/ha): 75
Plant response rating: Kochia (kochia (Kochia scoparia); 62 g ai/ha): 30
Plant response rating: Kochia (kochia (Kochia scoparia); 125 g ai/ha): 90
Plant response rating: Kochia (kochia (Kochia scoparia); 16 g ai/ha): 5
Plant response rating: Kochia (kochia (Kochia scoparia); 31 g ai/ha): 5
Plant response rating: Chickweed ([15]; 62 g ai/ha): 98
Plant response rating: Chickweed ([15]; 125 g ai/ha): 98
Plant response rating: Chickweed ([15]; 16 g ai/ha): 75
Plant response rating: Chickweed ([15]; 31 g ai/ha): 98
Plant response rating: Wheat, Spring ([16]; 62 g ai/ha): 0
Plant response rating: Wheat, Spring ([16]; 125 g ai/ha): 0
Plant response rating: Wheat, Spring ([16]; 16 g ai/ha): 0
Plant response rating: Wheat, Spring ([16]; 31 g ai/ha): 0
Plant response rating: Foxtail, Green ([17]; 62 g ai/ha): 0
Plant response rating: Foxtail, Green ([17]; 125 g ai/ha): 0
Plant response rating: Foxtail, Green ([17]; 16 g ai/ha): 0
Plant response rating: Foxtail, Green ([17]; 31 g ai/ha): 0
Plant response rating: Oat, Wild (wild oat (Avena fatua); 62 g ai/ha): 0
Plant response rating: Oat, Wild (wild oat (Avena fatua); 125 g ai/ha): 0
Plant response rating: Oat, Wild (wild oat (Avena fatua); 16 g ai/ha): 0
Plant response rating: Oat, Wild (wild oat (Avena fatua); 31 g ai/ha): 0
